Source: US20240122912A1, “A NANOFORMULATION FOR GLIOMA TREATMENT AND PROCESS FOR ITS PREPARATION THEREOF” (COUNCIL OF SCIENTIFIC AND INDUSTRIAL RESEARCH, priority 2021, published 2024)

Columns and labels:
orthotopic GL261 glioma = experiment: Orthotopic glioma model: survivability and tumor lesions; type: in vivo, C57BL/6J mice; conditions: 5 injections, sacrificed on 12th day; H8 8 mg/Kg
Text: Further, to observe the orthotopic brain tumor growth inhibitory efficiency of presently described SR-targeting CH8, we checked survivability among brain tumor-bearing mice following 5 alternate dosing of various treatment groups. Herein, the intraperitoneal injections started on 4th day until 12th day (total 5 injections) since stereotactic-based inoculation of GL261 cells in brain. […] In another set of experiment, animals bearing brain in situ GL261 cells and having 5 injections of various treatments were sacrificed on 12th day to visualize the status of tumor lesions in full brains obtained from respective treatment groups. […] Clearly, the visual effect of respective treatments has reflected on overall survivability of treated mice.

CHO, HEK293 = experiment: MTT cytotoxicity assay in non-cancer cells; type: cell-based; conditions: same concentration ranges

O=C(CCCN1CCC(O)(c2ccc(Cl)cc2)CC1)c1ccc(F)cc1 [H8]
Tumor sites / lesions in isolated brains (orthotopic GL261 glioma): comparable effect on tumor sites
Cytotoxic effects in non-cancer cells (CHO, HEK293): negligible
